Experimental data from article PMC4698017 (Science (New York, N.Y.), 2015).
Residue numbers refer to the chain shown, from its start.

How the values were obtained:
[1] = target: T1, His-MBP-Sestrin2 (bacterially-produced Sestrin2) (Homo sapiens, UniProt P58004); experiment: thermal shift assay, Sypro orange; assay type: binding; conditions: maximal shift
T1 sequence (P58004 1-480): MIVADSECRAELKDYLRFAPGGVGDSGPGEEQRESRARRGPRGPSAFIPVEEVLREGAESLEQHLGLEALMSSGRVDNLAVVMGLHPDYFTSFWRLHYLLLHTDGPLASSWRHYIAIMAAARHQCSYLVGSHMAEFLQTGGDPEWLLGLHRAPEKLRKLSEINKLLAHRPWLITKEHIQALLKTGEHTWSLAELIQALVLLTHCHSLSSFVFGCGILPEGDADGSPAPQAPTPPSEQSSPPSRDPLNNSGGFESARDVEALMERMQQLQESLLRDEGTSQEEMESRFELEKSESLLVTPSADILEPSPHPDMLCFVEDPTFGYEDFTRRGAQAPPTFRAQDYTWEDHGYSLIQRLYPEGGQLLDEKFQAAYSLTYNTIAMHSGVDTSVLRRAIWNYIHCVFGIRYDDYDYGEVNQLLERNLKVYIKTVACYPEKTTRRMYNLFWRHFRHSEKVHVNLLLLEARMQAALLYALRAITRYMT

[2] = target: T2, Sestrin2 (FLAG-Sestrin2) (Homo sapiens, UniProt P58004, E451A); experiment: [3H]Leucine binding, FLAG immunoprecipitate on beads; conditions: labelled compound
T2 sequence (P58004 1-480 E451A): T1 sequence (P58004 1-480) with E451A

[3] = target: T3, Sestrin2 (FLAG-Sestrin2) (Homo sapiens, UniProt P58004, L261A); experiment: as above; conditions: labelled compound
T3 sequence (P58004 1-480 L261A): T1 sequence (P58004 1-480) with L261A

[4] = target: T4, Sestrin1 (two isoforms) (Homo sapiens, UniProt Q9Y6P5); experiment: as above; conditions: labelled compound
T4 sequence (Q9Y6P5 1-492): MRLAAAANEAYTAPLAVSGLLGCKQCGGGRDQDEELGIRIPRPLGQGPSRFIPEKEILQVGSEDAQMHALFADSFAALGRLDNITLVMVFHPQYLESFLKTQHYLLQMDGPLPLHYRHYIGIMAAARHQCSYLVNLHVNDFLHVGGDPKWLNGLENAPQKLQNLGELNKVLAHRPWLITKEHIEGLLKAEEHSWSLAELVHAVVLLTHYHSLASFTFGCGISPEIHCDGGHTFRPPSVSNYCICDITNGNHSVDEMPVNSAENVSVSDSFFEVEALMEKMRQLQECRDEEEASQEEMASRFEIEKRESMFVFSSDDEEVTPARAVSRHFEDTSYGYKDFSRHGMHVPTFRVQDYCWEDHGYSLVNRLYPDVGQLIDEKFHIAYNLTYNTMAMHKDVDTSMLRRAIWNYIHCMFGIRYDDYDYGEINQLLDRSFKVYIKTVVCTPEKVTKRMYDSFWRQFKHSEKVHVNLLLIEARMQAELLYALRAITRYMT

[5] = target: T5, Sestrin2 (FLAG-Sestrin2) (Homo sapiens, UniProt P58004, S190W); experiment: as above; conditions: labelled compound
T5 sequence (P58004 1-480 S190W): T1 sequence (P58004 1-480) with S190W

[6] = target: T6, Sestrin3 (Homo sapiens, UniProt P58005); experiment: as above; conditions: labelled compound
T6 sequence (P58005 1-492): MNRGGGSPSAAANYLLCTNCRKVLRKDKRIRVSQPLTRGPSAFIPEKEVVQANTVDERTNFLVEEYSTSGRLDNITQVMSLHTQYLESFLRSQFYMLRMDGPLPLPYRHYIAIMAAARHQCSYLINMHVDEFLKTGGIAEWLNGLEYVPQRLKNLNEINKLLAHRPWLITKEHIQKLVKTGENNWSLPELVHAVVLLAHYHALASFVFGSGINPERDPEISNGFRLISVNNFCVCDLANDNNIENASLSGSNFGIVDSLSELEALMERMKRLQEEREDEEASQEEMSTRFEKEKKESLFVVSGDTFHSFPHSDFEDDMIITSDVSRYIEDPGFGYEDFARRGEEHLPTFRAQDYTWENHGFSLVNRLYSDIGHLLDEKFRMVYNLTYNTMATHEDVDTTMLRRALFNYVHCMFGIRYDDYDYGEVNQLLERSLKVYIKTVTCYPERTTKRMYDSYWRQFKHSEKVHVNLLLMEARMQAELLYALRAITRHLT

[7] = target: Sestrin2-GATOR2 complex (Homo sapiens, UniProt P58004); experiment: disruption of immunopurified Sestrin2-GATOR2 complex, immunoblot; assay type: binding; conditions: 300 µM amino acid
Chain of Sestrin2-GATOR2 complex (Q96S15 whole entry partner, one chain of several): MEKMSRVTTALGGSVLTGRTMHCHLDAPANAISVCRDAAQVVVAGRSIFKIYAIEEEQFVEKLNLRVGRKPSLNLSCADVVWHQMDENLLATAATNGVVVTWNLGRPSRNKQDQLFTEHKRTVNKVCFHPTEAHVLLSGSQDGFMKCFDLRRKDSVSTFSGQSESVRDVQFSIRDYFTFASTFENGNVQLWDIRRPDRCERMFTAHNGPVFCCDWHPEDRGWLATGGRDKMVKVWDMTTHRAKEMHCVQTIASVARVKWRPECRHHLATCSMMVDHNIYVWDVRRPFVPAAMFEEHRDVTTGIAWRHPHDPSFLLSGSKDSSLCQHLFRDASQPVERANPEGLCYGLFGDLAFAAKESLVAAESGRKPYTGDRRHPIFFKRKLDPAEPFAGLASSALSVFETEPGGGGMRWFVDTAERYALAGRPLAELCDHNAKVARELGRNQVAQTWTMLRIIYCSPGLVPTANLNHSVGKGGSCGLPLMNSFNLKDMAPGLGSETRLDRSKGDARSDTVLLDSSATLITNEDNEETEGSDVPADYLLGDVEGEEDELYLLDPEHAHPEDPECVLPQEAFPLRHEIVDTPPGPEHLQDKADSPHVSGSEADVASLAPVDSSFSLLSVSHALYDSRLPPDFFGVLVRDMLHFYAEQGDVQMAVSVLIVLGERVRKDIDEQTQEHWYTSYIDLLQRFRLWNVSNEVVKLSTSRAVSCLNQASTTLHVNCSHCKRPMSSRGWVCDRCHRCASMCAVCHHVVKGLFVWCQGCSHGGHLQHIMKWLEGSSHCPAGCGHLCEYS
Chain of Sestrin2-GATOR2 complex (Q9NXC5 whole entry partner, one chain of several): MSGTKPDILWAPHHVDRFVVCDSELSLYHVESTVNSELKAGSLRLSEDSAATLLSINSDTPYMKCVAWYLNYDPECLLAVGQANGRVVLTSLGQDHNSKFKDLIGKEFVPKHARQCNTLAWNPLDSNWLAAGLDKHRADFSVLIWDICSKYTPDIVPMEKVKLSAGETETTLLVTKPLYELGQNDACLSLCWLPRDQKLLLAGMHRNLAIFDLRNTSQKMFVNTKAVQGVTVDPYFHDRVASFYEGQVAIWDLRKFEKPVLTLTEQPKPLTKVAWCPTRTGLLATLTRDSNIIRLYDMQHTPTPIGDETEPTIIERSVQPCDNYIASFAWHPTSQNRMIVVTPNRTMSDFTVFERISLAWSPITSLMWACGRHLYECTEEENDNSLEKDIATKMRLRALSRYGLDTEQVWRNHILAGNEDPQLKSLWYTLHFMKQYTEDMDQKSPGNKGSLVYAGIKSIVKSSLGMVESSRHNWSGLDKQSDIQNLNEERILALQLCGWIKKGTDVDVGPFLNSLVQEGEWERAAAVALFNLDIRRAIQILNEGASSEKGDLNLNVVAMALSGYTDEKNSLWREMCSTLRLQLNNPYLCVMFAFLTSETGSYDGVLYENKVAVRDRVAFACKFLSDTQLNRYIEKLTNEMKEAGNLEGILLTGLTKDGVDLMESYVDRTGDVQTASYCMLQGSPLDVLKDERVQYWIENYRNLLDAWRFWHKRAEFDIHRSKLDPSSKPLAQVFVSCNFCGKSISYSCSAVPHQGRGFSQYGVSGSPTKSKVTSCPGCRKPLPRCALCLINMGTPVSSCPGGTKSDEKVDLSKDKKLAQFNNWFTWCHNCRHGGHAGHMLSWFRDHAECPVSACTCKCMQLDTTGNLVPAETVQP
Chain of Sestrin2-GATOR2 complex (Q6PJI9 whole entry partner, one chain of several): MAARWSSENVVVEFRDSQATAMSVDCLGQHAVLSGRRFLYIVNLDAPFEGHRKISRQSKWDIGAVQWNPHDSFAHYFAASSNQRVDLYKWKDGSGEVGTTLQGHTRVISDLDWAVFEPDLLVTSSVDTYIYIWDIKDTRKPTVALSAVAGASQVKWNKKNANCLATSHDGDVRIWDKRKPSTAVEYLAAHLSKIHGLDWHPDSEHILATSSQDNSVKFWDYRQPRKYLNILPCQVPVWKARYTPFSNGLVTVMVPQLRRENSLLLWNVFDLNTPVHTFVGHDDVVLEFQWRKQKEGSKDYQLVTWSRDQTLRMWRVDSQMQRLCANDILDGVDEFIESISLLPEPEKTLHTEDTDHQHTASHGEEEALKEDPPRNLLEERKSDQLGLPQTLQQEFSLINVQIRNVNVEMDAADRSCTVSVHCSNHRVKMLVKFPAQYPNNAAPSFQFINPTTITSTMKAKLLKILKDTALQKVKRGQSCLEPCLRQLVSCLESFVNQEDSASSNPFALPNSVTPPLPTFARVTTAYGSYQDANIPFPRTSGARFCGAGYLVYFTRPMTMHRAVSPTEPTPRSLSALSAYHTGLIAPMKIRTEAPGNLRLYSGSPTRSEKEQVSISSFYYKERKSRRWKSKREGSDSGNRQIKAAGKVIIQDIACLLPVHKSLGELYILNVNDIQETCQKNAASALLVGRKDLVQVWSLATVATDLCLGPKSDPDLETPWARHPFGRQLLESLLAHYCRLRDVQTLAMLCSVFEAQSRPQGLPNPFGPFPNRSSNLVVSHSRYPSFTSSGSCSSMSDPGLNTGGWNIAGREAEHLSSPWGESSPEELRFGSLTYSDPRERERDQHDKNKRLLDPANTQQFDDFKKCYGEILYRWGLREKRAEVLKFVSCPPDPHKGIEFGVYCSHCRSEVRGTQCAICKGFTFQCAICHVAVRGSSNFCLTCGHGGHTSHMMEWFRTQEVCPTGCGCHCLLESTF
Chain of Sestrin2-GATOR2 complex (Q96EE3 whole entry partner, one chain of several): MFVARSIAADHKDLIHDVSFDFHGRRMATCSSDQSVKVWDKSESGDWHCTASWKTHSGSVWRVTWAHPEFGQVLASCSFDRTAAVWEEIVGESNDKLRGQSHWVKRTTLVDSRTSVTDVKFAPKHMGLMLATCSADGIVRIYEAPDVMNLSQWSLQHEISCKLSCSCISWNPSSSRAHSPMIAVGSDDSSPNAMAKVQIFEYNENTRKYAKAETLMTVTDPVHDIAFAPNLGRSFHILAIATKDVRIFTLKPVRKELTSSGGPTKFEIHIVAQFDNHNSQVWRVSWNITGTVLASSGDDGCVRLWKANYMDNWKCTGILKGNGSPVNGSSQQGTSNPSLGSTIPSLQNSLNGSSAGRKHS
Chain of Sestrin2-GATOR2 complex (P55735 2-322 partner, one chain of several): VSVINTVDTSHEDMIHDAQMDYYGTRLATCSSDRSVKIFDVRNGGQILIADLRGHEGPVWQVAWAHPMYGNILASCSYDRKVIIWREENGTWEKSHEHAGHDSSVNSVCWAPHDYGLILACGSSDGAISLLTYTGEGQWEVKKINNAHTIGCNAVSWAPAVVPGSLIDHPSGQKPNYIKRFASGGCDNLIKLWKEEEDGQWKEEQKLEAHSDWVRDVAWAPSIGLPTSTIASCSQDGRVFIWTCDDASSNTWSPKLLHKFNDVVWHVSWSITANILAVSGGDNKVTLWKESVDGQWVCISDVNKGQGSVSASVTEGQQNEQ

In the case of `CC(C)C[C@H](N)C(=O)O` [leucine], the “melting temperature shift (dTm)” value [1] was “up to 8.5 °C”, the no appreciable binding [2] was “L261A and E451A, which do not bind leucine to an appreciable degree” and the no appreciable binding [3] was “L261A and E451A, which do not bind leucine to an appreciable degree”. The “[3H]Leucine binding, FLAG immunoprecipitate on beads” value [4] was “Sestrin1 bound leucine to a similar extent as did Sestrin2”, the “[3H]Leucine binding, FLAG immunoprecipitate on beads” value [5] was “Sestrin2 mutant (S190W) that still binds leucine” and the very weak binding [6] was “Sestrin3 bound very weakly”.

`CC(C)[C@H](N)C(=O)O` [valine] was tested, and the “disruption of immunopurified Sestrin2-GATOR2 complex, immunoblot” value [7] was “methionine, isoleucine, and valine– had any effect on the Sestrin2-GATOR2 interaction in vitro”.
